The source of these data is patent publication US6998423B2, “Prevention of loss and restoration of bone mass by certain prostaglandin agonists” (priority 1996, dated 2006).

The test system of the test is Bone Morphogenetic Protein 7 (BMP-7) expression in EP2 293S cells. The test can be described thus: Induction of BMP-7 expression (Northern blot) in 293S cells transfected with the EP2 receptor. The test is classed as cell-based, human. Conditions: 10^−6M, RNA extracted at 8, 16 and 24 hours, Northern blot with 32P-labeled BMP-7 probe. On the procedure:
Methods: 293S and EP2 293S cells were grown in Dulbecco's Modified Egale medium (DMEM, Gibco, BRL; Gaithersburg, Md.). One day prior to treatment with PGE2or a prostaglandin agonist, cells were plated at a density of 1.5×10^6 cells /10 cm dish. […] Cells were harvested and RNA extracted at 8, 16 and 24 hours. Northern blot analysis of total ([…] ) was carried out by probing the blots with ^32P-labeled BMP-7 probe. The blots were normalized for RNA loading by hybridization with ^32P-labeled 18s ribosomal RNA probe. […] Given the known role of BMP-7 in kidney regeneration and the ability of a prostaglandin agonist to induce BMP-7 expression in 293S kidney cells in a time and receptor specific manner indicates a role for a prostaglandin agonist in kidney regeneration.

With `CCCCC[C@H](O)/C=C/[C@H]1[C@H](O)CC(=O)[C@@H]1C/C=C\CCCC(=O)O` [PGE2, prostaglandin E2], the “induction of the expression of BMP-7” value was “in a time dependent manner induce the expression of BMP-7”.
